The subject of one test is Human IL2 promoter. In words: Human IL2 promoter reporter gene assay (RGA) in Jurkat cells. It is filed as cell-based. The settings on record: Jurkat clone K22 290_H23, anti-CD28 mAb + PMA stimulation 5.5 h. The protocol: Human IL2 Promoter Reporter Gene Assay (RGA) in Jurkat Cells
The transfected Jurkat clone K22 290_H23 was propagated in RPMI 1640 supplemented with 10% heat inactivated fetal calf serum, 50 μM 2-mercaptoethanol and 1 mg/ml Geneticin. The cell concentration should not exceed 1×10e6/ml during culturing. The cells should not exceed passage 30. Prior to the assay the cells were washed and prepared to the concentration of 2×10e6 cells/ml.
Compound dilutions were made as 2×-concentrated solutions then diluted 1/2 by addition to cells. Two hundred and fifty μl of compound dilution and 250 μl of cells were mixed together in wells of a 96-deep well plate. Cells/compounds premix were incubated 30 min at 37° C. and 5% CO2 directly in the deep well plate.
After pre-incubation of cells with compounds, cells were stimulated with anti-CD28 mAb (clone 15E8) at 3 μg/ml+PMA at 1 μg/ml. Both co-stimulants were diluted in culture medium at a 10×-concentrated solution. 10 μl of co-stimulants were pipetted into the white 96-well plates and 100 μl of cell/compound mix was immediately added in duplicates. The cells were stimulated for 5.5 h at 37° C. and 5% CO2.
After cell stimulation, 50 μl of BriteLitePlus reagent (Perkin Elmer) was added to each well and the bioluminescence was measured with a Wallac EnVision reader (Perkin Elmer).
On the technique in general: A reporter such as luciferase makes a cellular process visible.

The target of test [1] is C-domain of MALT1 (amino acids 329-824) (Homo sapiens (Human), UniProt Q9UDY8). In words: MALT1 biochemical assay (fluorescence lifetime enzyme activity assay). Particulars: 60 min pre-incubation, 2.5 nM enzyme, 1 μM peptide substrate. Here is the method: The readout parameter is the increase of fluorescence lifetime over time, proportional to enzyme activity.
The assay employs a short peptide substrate labeled with the single fluorophore PT14 as a fluorescence lifetime probe sensitive to the cleavage state of the substrate (PT14: 6-(9-oxo-9H-acridin-10-yl)-hexanoate, AssayMetrics, UK). […] The assay buffer consists of 200 mM Tris/HCl at pH 7.5, 0.8 M Na citrate, 100 μM EGTA, 100 μM DTT and 0.05% (w/v) CHAPS. […] Test compounds were dissolved in 100% (v/v) DMSO or a mixture containing 90% (v/v) DMSO and 10% (v/v) H2O at a stock concentration of 100 mM. Serial dilutions of test compounds were prepared using either 100% (v/v) DMSO or a mixture containing 90% (v/v) DMSO and 10% (v/v) H2O.

Chain of C-domain of MALT1 (amino acids 329-824) (Q9UDY8 329-824): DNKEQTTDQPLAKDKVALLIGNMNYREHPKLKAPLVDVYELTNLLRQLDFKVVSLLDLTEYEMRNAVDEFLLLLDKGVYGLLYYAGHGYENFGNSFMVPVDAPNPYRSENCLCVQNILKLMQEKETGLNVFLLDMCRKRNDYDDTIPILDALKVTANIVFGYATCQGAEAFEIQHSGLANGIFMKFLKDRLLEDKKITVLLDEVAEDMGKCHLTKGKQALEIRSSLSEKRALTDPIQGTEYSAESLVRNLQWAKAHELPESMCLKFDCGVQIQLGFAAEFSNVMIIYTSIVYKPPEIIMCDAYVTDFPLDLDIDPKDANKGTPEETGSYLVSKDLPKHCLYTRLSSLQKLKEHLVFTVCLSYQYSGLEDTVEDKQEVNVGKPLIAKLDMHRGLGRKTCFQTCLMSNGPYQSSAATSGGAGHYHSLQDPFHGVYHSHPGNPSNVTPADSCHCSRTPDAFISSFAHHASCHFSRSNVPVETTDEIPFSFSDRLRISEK

Consider `CO[C@@H](C)c1c(NC(=O)Nc2ccnc(C(F)(F)F)c2)cnc2cc(F)nn12` [Example 7, (S)-1-(2-fluoro-7-(1-methoxyethyl)pyrazolo[1,5-a]pyrimidin-6-yl)-3-(2-(trifluoromethyl)pyridin-4-yl)urea], for which the IC50 (usually the concentration that inhibits the measured activity by half) is 30 nM in the test on Human IL2 promoter and 8 nM in test [1].

On to `CO[C@@H](C)c1c(NC(=O)Nc2cncc(C#N)c2)cnc2cc(Cl)nn12` [Example 8, (S)-1-(2-chloro-7-(1-methoxyethyl)pyrazolo[1,5-a]pyrimidin-6-yl)-3-(5-cyanopyridin-3-yl)urea], for which the 50% inhibitory concentration (IC50) in the test on Human IL2 promoter is 33 nM.

On to `CO[C@@H](C)c1c(NC(=O)Nc2cnc(-n3nccn3)c(Cl)c2)cnc2cc(Cl)nn12` [Example 10, (S)-1-(5-chloro-6-(2H-1,2,3-triazol-2-yl)pyridin-3-yl)-3-(2-chloro-7-(1-methoxyethyl)pyrazolo[1,5-a]pyrimidin-6-yl)urea], for which the half-maximal inhibitory concentration (IC50) in the test on Human IL2 promoter was found to be 19 nM.

For the compound `CC(C)c1c(NC(=O)Nc2cnc(-n3nccn3)c(Cl)c2)cnc2cc(Cl)nn12` [Example 21, 1-(5-chloro-6-(2H-1,2,3-triazol-2-yl)pyridin-3-yl)-3-(2-chloro-7-isopropylpyrazolo[1,5-a]pyrimidin-6-yl)urea], the half-maximal inhibitory concentration (IC50) with Human IL2 promoter was 104 nM.

Compound `CC(C)c1c(NC(=O)Nc2cnc(-c3ccnn3C)c(Cl)c2)cnc2cc(Cl)nn12` [Example 29, 1-(5-chloro-6-(1-methyl-1H-pyrazol-5-yl)pyridin-3-yl)-3-(2-chloro-7-isopropylpyrazolo[1,5-a]pyrimidin-6-yl)urea] gave an IC50 in test [1] of 370 nM.

As to `CO[C@H](C)c1c(NC(=O)Nc2cnc(-n3nccn3)c(Cl)c2)cnc2cc(Cl)nn12` [Example 46, (R)-1-(5-chloro-6-(2H-1,2,3-triazol-2-yl)pyridin-3-yl)-3-(2-chloro-7-(1-methoxyethyl)pyrazolo[1,5-a]pyrimidin-6-yl)urea], the IC50 in the test with Human IL2 promoter is 82 nM.

For the compound `O=C(Nc1cnc(-n2nccn2)c(Cl)c1)Nc1cnc2cc(Cl)nn2c1C1CCOCC1` [Example 58, 1-(5-chloro-6-(2H-1,2,3-triazol-2-yl)pyridin-3-yl)-3-(2-chloro-7-(tetrahydro-2H-pyran-4-yl)pyrazolo[1,5-a]pyrimidin-6-yl)urea], in the test on Human IL2 promoter, the IC50 was 267 nM.

Turning to `CO[C@@H](C)c1c(NC(=O)Nc2cnc(-n3nccn3)c(C(F)F)c2)cnc2cc(Cl)nn12` [Example 89, (S)-1-(2-chloro-7-(1-methoxyethyl)pyrazolo[1,5-a]pyrimidin-6-yl)-3-(5-(difluoromethyl)-6-(2H-1,2,3-triazol-2-yl)pyridin-3-yl)urea], the figures for the IC50 (in the test with Human IL2 promoter; in test [1]) were 46 nM and 3 nM, respectively.

On to `CO[C@@H](C)c1c(NC(=O)Nc2ccnc(C(F)F)c2)cnc2cc(Cl)nn12` [Example 92, (S)-1-(2-chloro-7-(1-methoxyethyl)pyrazolo[1,5-a]pyrimidin-6-yl)-3-(2-(difluoromethyl)pyridin-4-yl)urea], for which the IC50 turned out to be 46 nM in the test on Human IL2 promoter and 9 nM in test [1].

As to `CO[C@@H](C)c1c(NC(=O)Nc2cnc(OC(F)F)c(Cl)c2)cnc2cc(Cl)nn12` [Example 93, (S)-1-(5-chloro-6-(difluoromethoxy)pyridin-3-yl)-3-(2-chloro-7-(1-methoxyethyl)pyrazolo[1,5-a]pyrimidin-6-yl)urea], the 50% inhibitory concentration (IC50) was determined as 157 nM in the test with Human IL2 promoter and 1 nM in test [1].

Regarding `CO[C@@H](C)c1c(NC(=O)Nc2cnc(-n3nccn3)c(C(F)(F)F)c2)cnc2cc(F)nn12` [Example 94, (S)-1-(6-(2H-1,2,3-triazol-2-yl)-5-(trifluoromethyl)pyridin-3-yl)-3-(2-fluoro-7-(1-methoxyethyl)pyrazolo[1,5-a]pyrimidin-6-yl)urea], the IC50 in the test on Human IL2 promoter was found to be 16 nM; in test [1], 2 nM.

Turning to `CO[C@@H](C)c1c(NC(=O)Nc2cnc(-n3nccn3)c(Cl)c2)cnc2cc(F)nn12` [Example 95, (S)-1-(5-chloro-6-(2H-1,2,3-triazol-2-yl)pyridin-3-yl)-3-(2-fluoro-7-(1-methoxyethyl)pyrazolo[1,5-a]pyrimidin-6-yl)urea], the IC50 in the test on Human IL2 promoter is 13 nM; in test [1], 2 nM.

Turning to `CO[C@@H](C)c1c(NC(=O)Nc2cnc(-n3nccn3)c(Cl)c2)cnc2cc(C#N)nn12` [Example 96, (S)-1-(5-chloro-6-(2H-1,2,3-tirazol-2-yl)pyridin-3-yl)-3-(2-cyano-7-(1-methoxyethyl)pyrazolo[1,5-a]pyrimidin-6-yl)urea], the IC50 with Human IL2 promoter amounted to 49 nM; in test [1], 10 nM.

Consider `COCCO[C@@H](C)c1c(NC(=O)Nc2cnc(OC(F)F)c(Cl)c2)cnc2cc(Cl)nn12` [Example 97, (S)-1-(5-chloro-6-(difluoromethoxy)pyridin-3-yl)-3-(2-chloro-7-(1-(2-methoxyethoxy)ethyl)pyrazolo[1,5-a]pyrimidin-6-yl)urea], for which the figures for the IC50 (with Human IL2 promoter; in test [1]) were 68 nM and 3 nM, respectively.

On to `CO[C@H](c1c(NC(=O)Nc2cnc(-n3nccn3)c(Cl)c2)cnc2cc(Cl)nn12)[C@@H](C)OC` [Example 98, 1-(5-chloro-6-(2H-1,2,3-triazol-2-yl)pyridin-3-yl)-3-(2-chloro-7-((1R,2R)-1,2-dimethoxypropyl)pyrazolo[1,5-a]pyrimidin-6-yl)urea], for which the 50% inhibitory concentration (IC50) in the test on Human IL2 promoter stood at 44 nM.

Consider `CO[C@@H](C)c1c(NC(=O)Nc2cc(Cl)cnc2OCCN(C)C)cnc2cc(Cl)nn12` [Example 99, (S)-1-(5-chloro-2-(2-(dimethylamino)ethoxy)pyridin-3-yl)-3-(2-chloro-7-(1-methoxyethyl)pyrazolo[1,5-a]pyrimidin-6-yl)urea], for which the figures for the 50% inhibitory concentration (IC50) (in the test with Human IL2 promoter; in test [1]) were 41 nM and 21 nM, respectively.

Take `C[C@H](O[C@@H]1CCOC1)c1c(NC(=O)Nc2cnc(-n3nccn3)c(Cl)c2)cnc2cc(Cl)nn12` [Example 100, 1-(5-chloro-6-(2H-1,2,3-triazol-2-yl)pyridin-3-yl)-3-(2-chloro-7-((S)-1-(((R)-tetrahydrofuran-3-yl)oxy)ethyl)pyrazolo[1,5-a]pyrimidin-6-yl)urea]: the 50% inhibitory concentration (IC50) with Human IL2 promoter is 84 nM; in test [1], 19 nM.

As for `C[C@H](O[C@H]1CCOC1)c1c(NC(=O)Nc2cnc(-n3nccn3)c(Cl)c2)cnc2cc(Cl)nn12` [Example 101, 1-(5-chloro-6-(2H-1,2,3-triazol-2-yl)pyridin-3-yl)-3-(2-chloro-7-((S)-1-(((S)-tetrahydrofuran-3-yl)oxy)ethyl)pyrazolo[1,5-a]pyrimidin-6-yl)urea], the IC50 in the test with Human IL2 promoter worked out at 25 nM; in test [1], 5 nM.

Take `C[C@H](OC[C@H]1CCOC1)c1c(NC(=O)Nc2cnc(-n3nccn3)c(Cl)c2)cnc2cc(Cl)nn12` [Example 102, 1-(5-chloro-6-(2H-1,2,3-triazol-2-yl)pyridin-3-yl)-3-(2-chloro-7-((S)-1-(((S)-tetrahydrofuran-3-yl)methoxy)ethyl)pyrazolo[1,5-a]pyrimidin-6-yl)urea]: the IC50 with Human IL2 promoter amounted to 14 nM; in test [1], 3 nM.

With `C[C@H](OC[C@@H]1CCOC1)c1c(NC(=O)Nc2cnc(-n3nccn3)c(Cl)c2)cnc2cc(Cl)nn12` [Example 103, 1-(5-chloro-6-(2H-1,2,3-triazol-2-yl)pyridin-3-yl)-3-(2-chloro-7-((S)-1-(((R)-tetrahydrofuran-3-yl)methoxy)ethyl)pyrazolo[1,5-a]pyrimidin-6-yl)urea], the half-maximal inhibitory concentration (IC50) in the test on Human IL2 promoter is 50 nM; in test [1], 5 nM.

Take `Cc1cc2ncc(NC(=O)Nc3cnc(-n4nccn4)c(Cl)c3)c(C3(C)CCCO3)n2n1` (stereo not shown) [Example 104, 1-(5-chloro-6-(2H-1,2,3-triazol-2-yl)pyridin-3-yl)-3-(2-methyl-7-(2-methyltetrahydrofuran-2-yl)pyrazolo[1,5-a]pyrimidin-6-yl)urea]: the IC50 in the test on Human IL2 promoter was found to be 24 nM; in test [1] it was 2 nM.

Regarding `CO[C@@H](C)c1c(NC(=O)Nc2ccnc(C#N)c2)cnc2cc(Cl)nn12` [Example 105, (S)-1-(2-chloro-7-(1-methoxyethyl)pyrazolo[1,5-a]pyrimidin-6-yl)-3-(2-cyanopyridin-4-yl)urea], the IC50 was determined as 59 nM with Human IL2 promoter and 11 nM in test [1].

`COCC1(c2c(NC(=O)Nc3cncc(C(F)(F)F)c3)cnc3cc(Cl)nn23)CCCO1` (stereo not shown) [Example 106, 1-(2-chloro-7-(2-(methoxymethyl)tetrahydrofuran-2-yl)pyrazolo[1,5-a]pyrimidin-6-yl)-3-(5-(trifluoromethyl)pyridin-3-yl)urea]: the IC50 with Human IL2 promoter was 484 nM; in test [1], 8 nM.

As to `O=C(Nc1cnc(-n2nccn2)c(Cl)c1)Nc1cnc2cc(Cl)nn2c1C1COCCN1` (stereo not shown) [Example 123, 1-(5-chloro-6-(2H-1,2,3-triazol-2-yl)pyridin-3-yl)-3-(2-chloro-7-(morpholin-3-yl)pyrazolo[1,5-a]pyrimidin-6-yl)urea], the IC50 with Human IL2 promoter was found to be 199 nM.

The values are drawn from patent US9815842B2, “Pyrazolo pyrimidine derivatives and their use as MALT1 inhibitors” (Novartis AG, priority 2014, dated 2017).
